Like-named read-outs stand apart in the source and are kept apart here.
How the values were obtained:
[1] = biological target: T1, T. cruzi TR (Trypanosoma cruzi, UniProt P28593); experiment: biochemical
T1 construct: made in house
Procedure: (§1) The compounds used in the enzymatic inhibitory testing and the in silico screening were available as stock solutions in DMSO or in solid from a compound library maintained at MSD. All IC50 determinations were performed starting from solid material. Recombinant T. cruzi TR (CL strain) was prepared using a published expression system. TS2 was prepared enzymatically as described previously. For antiparasitic studies, culture-adapted bloodstream T. brucei parasites of cell line 449 were used. These cells are descendants of strain Lister 427 stably transfected with the gene for the tetracycline repressor.
The kinetic analysis of TR was performed in 384-well plates (Greiner Bio-One GmbH, Frickenhausen, Germany). The reaction mixture (50 μl) contained 5 mU/ml TR, 40 mM Hepes, pH 7.5, 1 mM EDTA, 300 μM NADPH (Sigma-Aldrich), 0.1 mg/ml BSA, and 0.01% Pluronic (BASF). […] In a volume of 30 μl, the assay components and the inhibitor were pre-incubated for 30 minutes and the reaction started by adding 20 μl of 375 μM TS2 resulting in final concentrations of 150 μM TS2 and 2% DMSO. The absorption decrease at 340 nm was measured by start and end point determination resulting in a delta of the optical density (delta A) for 30 min. All experiments were performed at room temperature. The TR concentration was kept constant at 5 mU/ml for all types of experiments. Therefore, after an initial calculation of the turnover number (kcat), only delta A values under identical conditions were compared. Initial screening was performed twice in two independent experiments.
Eleven compound concentrations were used ranging from 100–0.01 μM or 200–0.004 μM. The compounds were freshly dissolved in DMSO. All measurements were performed twice in three independent series. Enzyme activities were plotted versus increasing inhibitor concentrations. IC50 values were calculated using the four-parameter equation model 205 and the option “unlock” from the XLfit add-in (IDBS, Guildford, United Kingdom) in Excel (Microsoft Corporation, Redmond, WA).
A robust NADPH-linked photometric assay was chosen that firstly had to be adapted to the high throughput screening format. The assay volume was reduced from the 1 ml cuvette format to 50 μl total volume in 384 well plates. […] In order to stabilize the enzyme and to prevent adhesion and reduce surface tension as well as the formation of droplets in the small wells, 0.1 mg/ml BSA and 0.01% detergent (Pluronic) were added to the reaction mixture.

[2] = biological target: T1, T. cruzi TR; experiment: Ki determination and inhibition type on TR; format: biochemical; conditions: for Ki (Fig 7, uncompetitive mode of inhibition assumed): mean of two independent experiments, no unit printed in the figure, in µM; for binding mode (inhibition type): SigmaPlot Enzyme Kinetics Module
Procedure: The kinetic analysis of TR was performed in 384-well plates (Greiner Bio-One GmbH, Frickenhausen, Germany). The reaction mixture (50 μl) contained 5 mU/ml TR, 40 mM Hepes, pH 7.5, 1 mM EDTA, 300 μM NADPH (Sigma-Aldrich), 0.1 mg/ml BSA, and 0.01% Pluronic (BASF). The detergent was used to prevent the formation of droplets during pipetting and had no negative effects on the assay kinetics. In a volume of 30 μl, the assay components and the inhibitor were pre-incubated for 30 minutes and the reaction started by adding 20 μl of 375 μM TS2 resulting in final concentrations of 150 μM TS2 and 2% DMSO. The absorption decrease at 340 nm was measured by start and end point determination resulting in a delta of the optical density (delta A) for 30 min. All experiments were performed at room temperature. The TR concentration was kept constant at 5 mU/ml for all types of experiments. Therefore, after an initial calculation of the turnover number (kcat), only delta A values under identical conditions were compared. Initial screening was performed twice in two independent experiments.
Measurements were performed at 60, 80, 120, and 200 μM TS2 and five inhibitor concentrations resulting in 20 different data points per inhibitor. […] SigmaPlot 10 (Systat Software, Inc., San Jose, USA) with the Enzyme Kinetics Module was used to evaluate the inhibition type and Ki values. This software automatically estimates the initial parameters for different fit models, and uses the Marquardt-Levenberg algorithm to determine the parameter values. A detailed statistical report as well as a data report is generated to compare multiple models and graphs. Based on these statistics, the appropriate binding model can be selected. Graphs are created based on the models and the calculated parameter values instead of fitting each individual inhibitor concentration curve.

[3] = tested on: bloodstream T. brucei (strain 449); experiment: Cell culture activity determination by counting living cells; format: cell-based; conditions: for EC50: Trypanosoma brucei, read-out: EC50, inhibition of parasite proliferation (living cells counted)
Procedure: as §1
Compounds were dissolved in DMSO to 10 mM stock solutions and added to bloodstream T. brucei (strain 449) in concentrations of 100, 50, 5, 0.5, and 0.05 μM in 24-well plates. The final DMSO content in the cultures was 1, 0.5, 0.05, 0.005 and 0.0005%, respectively. The initial cell density was 2500 cells/ml. After 48 h and 72 h incubation at 37°C in HMI-9 medium, viable cells were counted in a Neubauer chamber. The assay was performed in triplicate. The parasite strain and the culture conditions are described in the literature.

[4] = biological target: TR; parameters: method as in ref 39 (mepacrine), 42 (BG237), 43 (chlorhexidine); conditions: published data used for assay validation; ref 39 (mepacrine), 42 (BG237), 43 (chlorhexidine); cited from earlier work
[5] = parameters: method as in ref 47 = [47]; 47 PubChem (2014) Chlorhexidine (CID 9552079), sections “Biomedical Effects and Tixicity” and “Biomolecular Interactions and Pathways”. Available: http://pubchem.ncbi.nlm.nih.gov/summary/summary.cgi?c; conditions: in words; cited from earlier work
[6] = biological target: T1, T. cruzi TR; experiment: Mode of inhibition study: reversibility of binding (Amicon filter wash-out, then standard TR assay); format: biochemical
Procedure: Therefore, Amicon Ultra 0.5 ml centrifugal filters with a cut-off of 10,000 MW (Millipore Corporation, Billerica, MA, USA) were washed with 400 μl TR assay buffer and centrifuged for 5 min at 12,500 rpm at room temperature. Remaining buffer was removed by placing the filter upside down into a microcentrifuge tube and centrifugation at 3,500 rpm for 2 min. […] The filter was centrifuged for 15 min at 12,500 rpm, washed three times with 400 μl buffer and centrifuged again. The retentate was collected by placing the filter upside down on a new tube and centrifugation at 3,500 rpm for 2 min. The recovered protein solutions were subjected to a standard TR assay.
A reaction mixture containing TR, inhibitor and NADPH was incubated for 30 minutes. […] Afterwards, the protein was separated from the low molecular mass components by centrifugation in an Amicon tube. Inhibitors with a reversible binding mode would be washed out, whereas irreversible binders remain bound to the protein. Finally, the recovered protein solution was subjected to a standard assay to determine the remaining activity. Two controls were run to determine the maximum activity that could be recovered. One contained the protein assay mixture without inhibitor, while the second control was a mixture of TR and the reversible inhibitor chlorhexidine. […] Subsequently the inhibitor type and constants were determined.

[7] = tested on: bloodstream T. brucei wild-type cells; experiment: EC50 determination by ATPlite 1step assay, wild-type cells; format: cell-based; conditions: Trypanosoma brucei
Procedure: (§2) The ATPlite 1step assay system (PerkinElmer, Waltham, MA, USA) was used as described in Füller et al. to quantify T. brucei survival in medium-throughput dose-response series. Experiments were conducted in 96-well microplates (PerkinElmer, Waltham, MA, USA), each well containing 90 μl cell-culture and 10 μl compound. Initial cell densities were 2500 cells/ml. […] Unfortunately, compound 3 was no longer available for testing. […] For each compound, three identical plates were prepared, incubated at 37°C and analyzed after 24 h, 48 h, and 72 h, respectively. Samples from each cell-line left untreated were added to the plates prior to each measurement as additional controls. 50 μl of the ATPlite 1step solution (PerkinElmer, Waltham, MA, USA) were added to each well and the relative luminescence was measured immediately using a VICTOR Multilabel Plate Reader (PerkinElmer, Waltham, MA, USA) at room temperature. The values obtained were plotted against the logarithmic compound concentrations. A dose-response curve was generated from which EC50-values were calculated using the program PRISM 5.0 (GraphPad Software, La Jolla, CA, USA).
(§3) The parasites were cultured in the presence of different concentrations of the compounds and after 48 h and 72 h living cells were counted. […] The assay is based on the emission of light caused by the reaction of ATP with D-luciferin in the presence of luciferase, which is proportional to the amount of ATP serving as a marker for cell viability. […] Unfortunately, the T. brucei strain allowing the down-regulation of TR which was generated more than a decade ago in the laboratory of Christine Clayton is not available anymore. Therefore, this tet-inducible overexpressing system leading to up to three fold higher TR levels had to be used instead. Wild-type cells treated with 1 μg/ml tetracyclin were included to exclude any effect of the antibiotic on parasite proliferation.

[8] = tested on: T. brucei parasites transfected with pHD1700-TbTR (TR-Over-expressing cells); experiment: EC50 determination by ATPlite 1step assay, TR-over-expressing cells; format: cell-based; conditions: Trypanosoma brucei
Procedure: as §2, §3

[9] = tested on: T. brucei; conditions: read-out: EC50, inhibition of proliferation of T. brucei; cited from earlier work
[10] = 60-200 μM TS2, two independent experiments
[11] = 60-200 μM TS2, two independent experiments, read-out: Ki, assumed inhibitor type competitive
[12] = 60-200 μM TS2, two independent experiments, read-out: Ki, assumed inhibitor type noncompetitive
[13] = HTS format, Ki ± SD (n = 3), Table 1, read-out: Ki Measured

T1 sequence (P28593 whole entry): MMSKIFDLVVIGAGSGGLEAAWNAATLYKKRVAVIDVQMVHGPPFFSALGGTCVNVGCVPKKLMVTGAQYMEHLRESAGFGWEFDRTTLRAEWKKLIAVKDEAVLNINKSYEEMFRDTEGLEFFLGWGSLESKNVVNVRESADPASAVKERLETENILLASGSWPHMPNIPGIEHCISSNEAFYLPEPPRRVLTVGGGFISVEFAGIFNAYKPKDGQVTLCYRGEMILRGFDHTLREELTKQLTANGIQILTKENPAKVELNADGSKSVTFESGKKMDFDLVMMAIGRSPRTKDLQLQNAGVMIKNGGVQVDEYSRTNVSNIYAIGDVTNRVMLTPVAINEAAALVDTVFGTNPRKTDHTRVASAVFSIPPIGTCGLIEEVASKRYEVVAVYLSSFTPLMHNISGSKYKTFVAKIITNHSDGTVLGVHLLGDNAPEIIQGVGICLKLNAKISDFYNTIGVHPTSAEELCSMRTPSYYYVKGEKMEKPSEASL

SMILES: O=[N+]([O-])c1c(Cl)cc(Cl)c2nsnc12 [Compound 3]
- IC50 [1]: 0.61 ± 0.09 µM
- Ki, assumed inhibitor type uncompetitive [2, 10]: 0.64 ± 0.06 µM
- Ki [2, 11]: 0.15 ± 0.09 µM
- Ki [2, 12]: 0.91 ± 0.08 µM
- Ki (Fig 7, uncompetitive mode of inhibition assumed) [2]: 0.64 ± 0.06
- EC50 [3]: 5 to 50 µM

SMILES: O=C(Nc1ccccc1)OCCSc1ccc([N+](=O)[O-])c2nonc12 [Compound 1]
- IC50 [1]: 0.27 ± 0.01 µM
- Ki, assumed inhibitor type uncompetitive [2, 10]: 0.23 ± 0.02 µM
- Ki [2, 11]: 0.06 ± 0.03 µM
- Ki [2, 12]: 0.33 ± 0.03 µM
- Ki (Fig 7, uncompetitive mode of inhibition assumed) [2]: 0.23 ± 0.02

SMILES: CCN(CC)CCCC(C)Nc1c2ccc(Cl)cc2nc2ccc(OC)cc12 (stereo not shown) [Mepacrine, reference compound]
- Ki [4]: 19 µM
- IC50 [1]: > 200 µM
- Ki [2, 13]: 20 ± 5 µM
- binding mode (inhibition type) [2]: competitive binding mode
- Ki ([2]; three independent experiments, fitted to the relevant binding model, read-out: measured Ki (Lineweaver-Burk plots, Fig 3)): 20.7 ± 5.47 µM

SMILES: [H]/N=C(\N/C(=N/[H])NCCCCCCNC(=N)NC(=N)Nc1ccc(Cl)cc1)Nc1ccc(Cl)cc1 [Chlorhexidine, reference compound]
- permeability described in pharmacokinetic studies [5]: poor permeability
- Ki [4]: 2 µM
- IC50 [1]: 26 ± 2 µM
- Ki [2, 13]: 4 ± 1 µM
- binding mode (inhibition type) [2]: competitive binding mode
- EC50 [3]: 0.1 to 0.2 µM
- reversible or irreversible binding to the enzyme ([6]; 100 μM inhibitor, 300 μM NADPH, 30 min incubation, wash-out): reversible
- TR activity recovered compared to the initial kinetics ([6]; after wash-out of the inhibitor): 70–80%

SMILES: O=[N+]([O-])c1c(Sc2ncnc3ccccc23)cc(Cl)c2nsnc12 [Compound 2]
- EC50 ([7]; read-out: EC50 24 h, Wild-type cells, ATPlite, 24 h, mean ± SD of three series): 56.4 ± 2 µM
- EC50 ([7]; read-out: EC50 48 h, Wild-type cells, ATPlite, 48 h, mean ± SD of three series): 33 ± 2.2 µM
- EC50 ([7]; read-out: EC50 at 24 h (ATPlite), 24 h, cell type not given): 42 µM
- EC50 ([7]; read-out: EC50 at 48 h (ATPlite), 48 h, cell type not given): 42 µM
- EC50 ([7]; 72 h, cell type not given, read-out: EC50 after 72 h (ATPlite)): 58 µM
- EC50 ([7]; ATPlite, 72 h, series containing up to 150 μM compound = 1.5% DMSO, which affects cell viability, read-out: EC50 72 h, Wild-type cells): 55.9 ± 1.3 µM
- EC50 ([8]; 24 h, read-out: EC50 24 h, TR-Over-expressing cells): 37.6 ± 1.9 µM
- EC50 ([8]; 48 h, read-out: EC50 48 h, TR-Over-expressing cells): 46.9 ± 3.1 µM
- EC50 ([8]; 72 h, read-out: EC50 72 h, TR-Over-expressing cells): 82 ± 1.6 µM
- IC50 [1]: 0.58 ± 0.09 µM
- Ki, assumed inhibitor type uncompetitive [2, 10]: 0.88 ± 0.08 µM
- Ki [2, 11]: 0.26 ± 0.12 µM
- Ki [2, 12]: 1.3 ± 0.12 µM
- Ki (Fig 7, uncompetitive mode of inhibition assumed) [2]: 0.88 ± 0.08
- EC50 [3]: 5 to 50 µM

SMILES: CC1CS(=O)(=O)CCN1/N=C/c1ccc([N+](=O)[O-])o1 (stereo not shown) [nifurtimox]
- EC50 [9]: 2.5 µM

SMILES: NS(=O)(=O)c1ccc(Nc2cc(Cl)c3nonc3c2[N+](=O)[O-])cc1 [Compound 4]
- IC50 [1]: 0.48 ± 0.02 µM
- Ki, assumed inhibitor type uncompetitive [2, 10]: 0.80 ± 0.10 µM
- Ki [2, 11]: 0.19 ± 0.07 µM
- Ki [2, 12]: 1.11 ± 0.13 µM
- Ki (Fig 7, uncompetitive mode of inhibition assumed) [2]: 0.80 ± 0.10
- EC50, inhibition of parasite proliferation (living cells counted) ([3]; after 48 h and 72 h): not active

From PMC4456413, “Trypanothione Reductase: A Target Protein for a Combined In Vitro and In Silico Screening Approach” (PLoS Neglected Tropical Diseases, 2015)
